Test results taken from patent US12522587B2, “Cancer treatments targeting cancer stem cells” (Remedy Plan, Inc., priority 2018, dated 2026).

System: AGS human gastric adenocarcinoma cells
Assay: Human microarray study (Affymetrix Clariom S) of treated AGS cells
Assay type: cell-based
Conditions: two days
Description: AGS human gastric adenocarcinoma cells were treated with compound I-1, or DMSO alone (as a negative control) for two days. After two days, RNA was isolated from compound I-1 treated cells and DMSO treated cells, in duplicate, and subjected to microarray analysis using AFFYMETRIX CLARIOM S microarrays. Data were represented as fold change relative to the compound I-1 treated cells, negative values represented genes that were on higher in compound I-1 treated cells than in DMSO treated cells, and positive values represented genes that were on higher in DMSO treated cells than in compound I-1 treated cells. Values were averaged for the duplicate samples. We included data for the genes whose expression was altered by more than 3 fold, either up or down, in response to compound I-1.
Negative numbers indicate fold upregulation upon drug treatment. Positive numbers indicate fold downregulation upon drug treatment. […] In addition, Chac1, PCK2, and SLC7A11 were all shown to have a tumor promoting activity and to be associated with the more dangerous and lethal forms of cancer, and these three genes were the three most strongly repressed genes measured in this analysis. There were other examples in the data that supported this model, but the overall model was that compound I-1 increased the expression of tumor suppressor genes, and decreased the expression of tumor promoting genes.

CCC(=O)N1CCc2cc(-c3ccc(C(=O)NCc4cccnc4)cc3)ccc21 [Compound I-1]
expression of tumor promoting genes (microarray, overall model): decreased
expression of tumor suppressor genes (microarray, overall model): increased
Fold Change ABHD4 (negative = upregulated): −15.57 fold
Fold Change ACAT2 (negative = upregulated): −5.41 fold
Fold Change ACSS2 (negative = upregulated): −8.4 fold
Fold Change AKR1B10 (negative = upregulated): −4.25 fold
Fold Change AKR1B15 (negative = upregulated): −3.05 fold
Fold Change AKR1C1 (negative = upregulated): −16.86 fold
Fold Change AKR1C2 (negative = upregulated): −6.95 fold
Fold Change AKR1C3 (negative = upregulated): −8.57 fold
Fold Change ANO6 (negative = upregulated): −3.15 fold
Fold Change ARHGEF3 (negative = upregulated): −6.93 fold
Fold Change ARRDC3 (negative = upregulated): −5.99 fold
Fold Change AVPI1 (negative = upregulated): −3.14 fold
Fold Change BCL2L11 (negative = upregulated): −4 fold
Fold Change BCL6 (negative = upregulated): −3.01 fold
Fold Change BHLHE40 (negative = upregulated): −7.94 fold
Fold Change CA5B (negative = upregulated): −4.1 fold
Fold Change CBFA2T2 (negative = upregulated): −3.24 fold
Fold Change CCNG2 (negative = upregulated): −3.58 fold
Fold Change CDA (negative = upregulated): −3.79 fold
Fold Change CDC42EP4 (negative = upregulated): −3.75 fold
Fold Change CDKN1A (negative = upregulated): −3.11 fold
Fold Change CNNM2 (negative = upregulated): −3.68 fold
Fold Change CREBRF (negative = upregulated): −5.55 fold
Fold Change CSF1 (negative = upregulated): −3.31 fold
Fold Change CXCL17 (negative = upregulated): −4.1 fold
Fold Change CYP51A1 (negative = upregulated): −4.74 fold
Fold Change DBP (negative = upregulated): −10.5 fold
Fold Change DHCR7 (negative = upregulated): −8.77 fold
Fold Change DHCR24 (negative = upregulated): −3.44 fold
Fold Change DNAJB4 (negative = upregulated): −3.09 fold
Fold Change DNAJB5 (negative = upregulated): −3.84 fold
Fold Change DNMBP (negative = upregulated): −4 fold
Fold Change DUSP10 (negative = upregulated): −27.17 fold
Fold Change EBP (negative = upregulated): −3.69 fold
Fold Change EDN2 (negative = upregulated): −3 fold
Fold Change EFNA1 (negative = upregulated): −5.15 fold
Fold Change EPHA4 (negative = upregulated): −4.56 fold
Fold Change EYA3 (negative = upregulated): −3.81 fold
Fold Change F2RL1 (negative = upregulated): −3.37 fold
Fold Change FAM46A (negative = upregulated): −4.76 fold
Fold Change FAM46C (negative = upregulated): −3.6 fold
Fold Change FAM160A1 (negative = upregulated): −3.86 fold
Fold Change FASN (negative = upregulated): −5.82 fold
Fold Change FDFT1 (negative = upregulated): −7.56 fold
Fold Change FGA (negative = upregulated): −13.67 fold
Fold Change FGG (negative = upregulated): −4.11 fold
Fold Change G6PD (negative = upregulated): −3.11 fold
Fold Change GALM (negative = upregulated): −3.17 fold
Fold Change GATSL2 (negative = upregulated): −3.58 fold
Fold Change GDF15 (negative = upregulated): −4.83 fold
Fold Change GNE (negative = upregulated): −3.21 fold
Fold Change GRHL3 (negative = upregulated): −4.96 fold
Fold Change HHLA2 (negative = upregulated): −3.59 fold
Fold Change HK1 (negative = upregulated): −6.34 fold
Fold Change HMGCR (negative = upregulated): −4.8 fold
Fold Change HMGCS1 (negative = upregulated): −9.9 fold
Fold Change HMOX1 (negative = upregulated): −14.23 fold
Fold Change HSPA1A; HSPA1B (negative = upregulated): −5.34 fold
Fold Change HSPA1B; HSPA1A (negative = upregulated): −5.04 fold
Fold Change HSPB8 (negative = upregulated): −4.71 fold
Fold Change IDI1 (negative = upregulated): −5.77 fold
Fold Change IL1RN (negative = upregulated): −4.04 fold
Fold Change ILF2 (negative = upregulated): −3.2 fold
Fold Change INPP5D (negative = upregulated): −3.12 fold
Fold Change INSIG1 (negative = upregulated): −8.5 fold
Fold Change JAG1 (negative = upregulated): −3.31 fold
Fold Change JAK2 (negative = upregulated): −3.6 fold
Fold Change KAT6B (negative = upregulated): −3.77 fold
Fold Change LEMD1 (negative = upregulated): −3.16 fold
Fold Change LIPG (negative = upregulated): −3.65 fold
Fold Change LNX1 (negative = upregulated): −4.32 fold
Fold Change LPIN1; MIR548S (negative = upregulated): −3.22 fold
Fold Change LY6D (negative = upregulated): −4.81 fold
Fold Change LYPD3 (negative = upregulated): −4.09 fold
Fold Change MICA (negative = upregulated): −3.66 fold
Fold Change MICB (negative = upregulated): −12.71 fold
Fold Change MID1 (negative = upregulated): −3.25 fold
Fold Change MSMO1 (negative = upregulated): −9.47 fold
Fold Change MT1E (negative = upregulated): −3.03 fold
Fold Change MT1L (negative = upregulated): −3 fold
Fold Change MTSS1L (negative = upregulated): −3.41 fold
Fold Change MVD (negative = upregulated): −3.82 fold
Fold Change MVK (negative = upregulated): −3.11 fold
Fold Change MXD1 (negative = upregulated): −6.23 fold
Fold Change MYLIP; MIR4639 (negative = upregulated): −3.88 fold
Fold Change NEU1 (negative = upregulated): −4.89 fold
Fold Change NEURL3 (negative = upregulated): −3.41 fold
Fold Change NFAT5 (negative = upregulated): −3.32 fold
Fold Change NFKBIA (negative = upregulated): −4.97 fold
Fold Change NR1D1 (negative = upregulated): −23.3 fold
Fold Change NR1D2 (negative = upregulated): −3.01 fold
Fold Change NSDHL (negative = upregulated): −3.29 fold
Fold Change OCLM (negative = upregulated): −3.22 fold
Fold Change OSGIN1 (negative = upregulated): −3.63 fold
Fold Change OTUD1 (negative = upregulated): −3.29 fold
Fold Change OVOL1 (negative = upregulated): −4.01 fold
Fold Change PADI1 (negative = upregulated): −3.48 fold
Fold Change PCDH7 (negative = upregulated): −3.81 fold
Fold Change PDGFRL (negative = upregulated): −6.65 fold
Fold Change PERI; MIR6883 (negative = upregulated): −16.75 fold
Fold Change PGM2L1 (negative = upregulated): −3.76 fold
Fold Change PIM1 (negative = upregulated): −3.7 fold
Fold Change PLK2 (negative = upregulated): −3.13 fold
Fold Change PLPP3 (negative = upregulated): −3.74 fold
Fold Change POLR2L (negative = upregulated): −3.14 fold
Fold Change PRDM1 (negative = upregulated): −3.06 fold
Fold Change PRSS22 (negative = upregulated): −4.6 fold
Fold Change PSCA (negative = upregulated): −3.18 fold
Fold Change PVRL1 (negative = upregulated): −3.57 fold
Fold Change PVRL4 (negative = upregulated): −3.32 fold
Fold Change RAB30 (negative = upregulated): −3.82 fold
Fold Change RASSF5 (negative = upregulated): −5.9 fold
Fold Change RBM26 (negative = upregulated): −6.5 fold
Fold Change REG1A (negative = upregulated): −3.05 fold
Fold Change RHOV (negative = upregulated): −4.66 fold
Fold Change RND1 (negative = upregulated): −5.3 fold
Fold Change RRAGC (negative = upregulated): −3.01 fold
Fold Change RSRP1 (negative = upregulated): −3.61 fold
Fold Change RYBP (negative = upregulated): −3.38 fold
Fold Change SAT2 (negative = upregulated): −3.99 fold
Fold Change SC5D (negative = upregulated): −3.39 fold
Fold Change SEC24D (negative = upregulated): −3.84 fold
Fold Change SLC20A1 (negative = upregulated): −4.87 fold
Fold Change SLC25A25 (negative = upregulated): −3.73 fold
Fold Change SLC30A1 (negative = upregulated): −4.84 fold
Fold Change SLN (negative = upregulated): −5.63 fold
Fold Change SPATA5 (negative = upregulated): −3.26 fold
Fold Change SQLE (negative = upregulated): −4.32 fold
Fold Change STK17B (negative = upregulated): −6.26 fold
Fold Change SUSD6 (negative = upregulated): −3.48 fold
Fold Change TAF5 (negative = upregulated): −3.41 fold
Fold Change TEF (negative = upregulated): −6.45 fold
Fold Change TGFBR3 (negative = upregulated): −3.86 fold
Fold Change TIAL1 (negative = upregulated): −4.62 fold
Fold Change TKT (negative = upregulated): −3.56 fold
Fold Change TMEM2 (negative = upregulated): −4.49 fold
Fold Change TMEM263 (negative = upregulated): −3.01 fold
Fold Change TMPRSS2 (negative = upregulated): −5.06 fold
Fold Change TNFSF13B (negative = upregulated): −4.12 fold
Fold Change TRIM24 (negative = upregulated): −3.01 fold
Fold Change UGDH (negative = upregulated): −4.16 fold
Fold Change YBX1 (negative = upregulated): −3.62 fold
Fold Change ZNF114 (negative = upregulated): −7.07 fold
Fold Change ZNRF3 (negative = upregulated): −3.14 fold
Fold Change ZSWIM6 (negative = upregulated): −3.28 fold
Fold Change SQSTM1 (negative = upregulated, first SQSTM1 entry): −4.27 fold
Fold Change SQSTM1 (negative = upregulated, second SQSTM1 entry): −3.5 fold
Fold Change AARS (positive = downregulated): 3.12 fold
Fold Change AJUBA (positive = downregulated): 8.65 fold
Fold Change AKTIP (positive = downregulated): 3.39 fold
Fold Change ARHGEF2 (positive = downregulated): 4.73 fold
Fold Change ASNS (positive = downregulated): 12.78 fold
Fold Change ASS1 (positive = downregulated): 7.34 fold
Fold Change ATF5; MIR4751 (positive = downregulated): 6.55 fold
Fold Change BRCA1 (positive = downregulated): 4.22 fold
Fold Change BTC (positive = downregulated): 5.04 fold
Fold Change C4BPB (positive = downregulated): 3.69 fold
Fold Change C5orf28 (positive = downregulated): 4.4 fold
Fold Change C12orf4 (positive = downregulated): 3.45 fold
Fold Change C14orf79 (positive = downregulated): 3.68 fold
Fold Change C17orf80 (positive = downregulated): 4.3 fold
Fold Change CARS (positive = downregulated): 5.53 fold
Fold Change CCDC125 (positive = downregulated): 3.31 fold
Fold Change CCDC138 (positive = downregulated): 3.07 fold
Fold Change CDC7 (positive = downregulated): 3.01 fold
Fold Change CDH11 (positive = downregulated): 4.69 fold
Fold Change CDX2 (positive = downregulated): 3.07 fold
